Data taken from US11912699B2, “Tau-protein targeting compounds and associated” (Arvinas Operations, Inc., priority 2019, dated 2024).
Counter-ions that a name gives are not always drawn.

Target: T1, Tau P301L (Homo sapiens, UniProt P10636, P618L)
T1 construct: expressed in transfected cells
Test: In vitro tau degradation assay in CHOK1 Tau P301L cells (sarkosyl insoluble tau, WES)
Assay type: cell-based
Conditions: CHO-K1; remaining tau protein in sarkosyl insoluble pellet; CHOK1 Tau P301L cells treated 48 hours with test compound at 1 μM, doxycycline removed for the last 24 hours; relative to DMSO doxycycline control; read-out: Tau Protein Degradation effect at 1 μM
How it was run: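 T-Rex CHOK1 clone D1 with doxycycline-inducible (1 μg/ml) Tau P301L treated 48 h with compound at 1 μM, doxycycline removed for the final 24 h. Sarkosyl-insoluble tau quantified by WES capillary electrophoresis with Tau1 antibody, expressed relative to DMSO doxycycline control and binned as ≤50% or >50% remaining.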

T1 sequence (P10636 1-441 isoform P10636-8 P301L): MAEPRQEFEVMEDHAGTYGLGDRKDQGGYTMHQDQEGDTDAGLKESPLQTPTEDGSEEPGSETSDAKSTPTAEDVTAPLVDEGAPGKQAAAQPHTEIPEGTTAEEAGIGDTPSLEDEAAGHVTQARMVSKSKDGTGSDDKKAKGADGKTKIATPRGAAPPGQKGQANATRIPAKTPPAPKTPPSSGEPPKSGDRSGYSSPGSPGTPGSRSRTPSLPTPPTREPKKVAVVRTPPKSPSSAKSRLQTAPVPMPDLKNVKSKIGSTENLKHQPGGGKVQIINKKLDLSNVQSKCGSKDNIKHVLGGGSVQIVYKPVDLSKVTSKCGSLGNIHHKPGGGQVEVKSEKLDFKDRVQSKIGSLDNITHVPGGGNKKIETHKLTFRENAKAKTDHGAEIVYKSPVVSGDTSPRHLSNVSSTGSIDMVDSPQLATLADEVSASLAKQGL

| Compound | remaining activity at 1 µM [%] |
| --- | --- |
| O=C1CCC(N2C(=O)c3ccc(N4CCN(CCC5CCN(c6ncc(-c7ccc8c9cnccc9n(C(F)F)c8c7)cn6)CC5)CC4)cc3C2=O)C(=O)N1 (centres unmarked) [Compound 514, 5-(4-(2-(1-(5-(5-(difluoromethyl)-5H-pyrido[4,3-b]indol-7-yl)pyrimidin-2-yl)piperidin-4-yl)ethyl)piperazin-1-yl)-2-(2,6-dioxopiperidin-3-yl)isoindoline-1,3-dione] | < 50 |
| Cn1c2ccncc2c2ccc(C3CCN([C@H]4C[C@@H](OC5CCN(CCOc6ccc7c(c6)C(=O)N(C6CCC(=O)NC6=O)C7=O)CC5)C4)CC3)cc21 (some centres unmarked) [Compound 515, 2-(2,6-dioxopiperidin-3-yl)-5-(2-(4-((1s,3s)-3-(4-(5-methyl-5H-pyrido[4,3-b]indol-7-yl)piperidin-1-yl)cyclobutoxy)piperidin-1-yl)ethoxy) isoindoline-1,3-dione] | < 50 |
| O=C1CCC(N2C(=O)c3ccc(N4CCN(CCC5CCN(CCCn6c7ccccc7c7cnccc76)CC5)CC4)cc3C2=O)C(=O)N1 (centres unmarked) [Compound 527, 5-(4-(2-(1-(3-(5H-pyrido[4,3-b]indol-5-yl)propyl)piperidin-4-yl)ethyl)piperazin-1-yl)-2-(2,6-dioxopiperidin-3-yl)isoindoline-1,3-dione] | < 50 |
| O=C1CCC(N2C(=O)c3ccc(N4CCN(CCC5CCN(c6ncc(-c7ccc8c9cnccc9n(C(F)F)c8c7)cc6F)CC5)CC4)cc3C2=O)C(=O)N1 (centres unmarked) [Compound 532, 5-[4-[2-[1-[5-[5-(difluoromethyl)pyrido[4,3-b]indol-7-yl]-3-fluoro-2-pyridyl]-4-piperidyl]ethyl]piperazin-1-yl]-2-(2,6-dioxo-3-piperidyl)isoindoline-1,3-dione trifluoroacetate] | < 50 |
| Cn1c2ccncc2c2ccc(C#CC3CCN(CCN4CCN(c5ccc6c(c5)C(=O)N(C5CCC(=O)NC5=O)C6=O)CC4)CC3)cc21 (centres unmarked) [Compound 533, 2-(2,6-dioxopiperidin-3-yl)-5-(4-(2-(4-((5-methyl-5H-pyrido[4,3-b]indol-7-yl)ethynyl)piperidin-1-yl)ethyl)piperazin-1-yl)isoindoline-1,3-dione] | < 50 |
| O=C1CCC(N2Cc3cc(N4CCN(CCC5CCN(c6ncc(-c7ccc8c9cnccc9n(C(F)F)c8c7)cc6C(F)(F)F)CC5)CC4)ccc3C2=O)C(=O)N1 (centres unmarked) [Compound 543, 3-(5-(4-(2-(1-(5-(5-(difluoromethyl)-5H-pyrido[4,3-b]indol-7-yl)-3-(trifluoromethyl)pyridin-2-yl)piperidin-4-yl)ethyl)piperazin-1-yl)-1-oxoisoindolin-2-yl)piperidine-2,6-dione] | < 50 |
| Cc1ccc(-n2ccc3cc(N4CCC(CCN5CCN(c6ccc7c(c6)C(=O)N(C6CCC(=O)NC6=O)C7=O)CC5)CC4)ncc32)nc1 (centres unmarked) [Compound 555, 2-(2,6-dioxopiperidin-3-yl)-5-(4-(2-(1-(1-(5-methylpyridin-2-yl)-1H-pyrrolo[2,3-c]pyridin-5-yl)piperidin-4-yl)ethyl)piperazin-1-yl)isoindoline-1,3-dione] | < 50 |
| Cc1ccc(-c2cn3ccc(N4CCC(CCN5CCN(c6ccc7c(c6)C(=O)N(C6CCC(=O)NC6=O)C7=O)CC5)CC4)cc3n2)cc1 (centres unmarked) [Compound 558, 2-(2,6-dioxopiperidin-3-yl)-5-(4-(2-(1-(2-(p-tolyl)imidazo[1,2-a]pyridin-7-yl)piperidin-4-yl)ethyl)piperazin-1-yl)isoindoline-1,3-dione] | < 50 |
| Cc1cc2c(cn1)c1ccc(-c3cnc(N4CCC(CCN5CCN(c6ccc7c(c6)C(=O)N(C6CCC(=O)NC6=O)C7=O)CC5)CC4)c(F)c3)cc1n2C (centres unmarked) [Compound 561, 5-(4-(2-(1-(5-(3,5-dimethyl-5H-pyrido[4,3-b]indol-7-yl)-3-fluoropyridin-2-yl)piperidin-4-yl)ethyl)piperazin-1-yl)-2-(2,6-dioxopiperidin-3-yl)isoindoline-1,3-dione] | < 50 |
| O=C1CCC(N2C(=O)c3ccc(N4CCN(CC#CC5CCN(c6ccc7c8cnccc8n(C(F)F)c7c6)CC5)CC4)cc3C2=O)C(=O)N1 (centres unmarked) [Compound 565, formate] | < 50 |
| O=C1CCC(N2C(=O)c3ccc(C#CCN4CCN(CCC5CCN(c6ncc(-c7ccc8c9cnccc9n(C(F)F)c8c7)cc6F)CC5)CC4)cc3C2=O)C(=O)N1 (centres unmarked) [Compound 566, 5-(3-(4-(2-(1-(5-(5-(difluoromethyl)-5H-pyrido[4,3-b]indol-7-yl)-3-fluoropyridin-2-yl)piperidin-4-yl)ethyl)piperazin-1-yl)prop-1-yn-1-yl)-2-(2,6-dioxopiperidin-3-yl)isoindoline-1,3-dione] | < 50 |
| O=C1CCC(N2C(=O)c3ccc(OCCCN4CCC5(CC4)CN(c4ncc(-c6ccc7c8cnccc8n(C(F)F)c7c6)cc4F)C5)cc3C2=O)C(=O)N1 (centres unmarked) [Compound 568, 5-(3-(2-(5-(5-(difluoromethyl)-5H-pyrido[4,3-b]indol-7-yl)-3-fluoropyridin-2-yl)-2,7-diazaspiro[3.5]nonan-7-yl)propoxy)-2-(2,6-dioxopiperidin-3-yl)isoindoline-1,3-dione] | < 50 |
| O=C1CCC(N2C(=O)c3ccc(N4CCN(CC(F)(F)C5CCN(c6ccc(-c7ccc8c(c7)[nH]c7ccncc78)cn6)CC5)CC4)cc3C2=O)C(=O)N1 (centres unmarked) [Compound 569, 5-(4-(2-(1-(5-(5H-pyrido[4,3-b]indol-7-yl)pyridin-2-yl)piperidin-4-yl)-2,2-difluoroethyl)piperazin-1-yl)-2-(2,6-dioxopiperidin-3-yl)isoindoline-1,3-dione] | < 50 |
| O=C1CCC(N2C(=O)c3ccc(N4CCN(CC#CC5CCN(c6ncc(-c7ccc8c9cnccc9n(C(F)F)c8c7)cc6F)CC5)CC4)cc3C2=O)C(=O)N1 (centres unmarked) [Compound 574, 5-(4-(3-(1-(5-(5-(difluoromethyl)-5H-pyrido[4,3-b]indol-7-yl)-3-fluoropyridin-2-yl)piperidin-4-yl)prop-2-yn-1-yl)piperazin-1-yl)-2-(2,6-dioxopiperidin-3-yl)isoindoline-1,3-dione] | < 50 |
| O=C1CCC(N2C(=O)c3ccc(N4CCN(CCCN5CCOC6(CCN(c7ccc8c9cnccc9n(C(F)F)c8c7)CC6)C5)CC4)cc3C2=O)C(=O)N1 (centres unmarked) [Compound 575, 5-(4-(3-(9-(5-(difluoromethyl)-5H-pyrido[4,3-b]indol-7-yl)-1-oxa-4,9-diazaspiro[5.5]undecan-4-yl)propyl)piperazin-1-yl)-2-(2,6-dioxopiperidin-3-yl)isoindoline-1,3-dione] | < 50 |
| O=C1CCC(N2C(=O)c3ccc(OCCC4CCN(C[C@H]5C[C@H](Oc6cc(Nc7ccc8ncccc8n7)ccn6)C5)CC4)cc3C2=O)C(=O)N1 (some centres unmarked) [Compound 577, 5-(2-(1-(((1r,3r)-3-((4-((1,5-napthyridin-2-yl)amino)pyridin-2-yl)oxy)cyclobutyl)methyl)piperidin-4-yl)ethoxy)-2-(2,6-dioxopiperidin-3-yl)isoindoline-1,3-dione] | > 50 |
| CC(C)N(CC1CCN(c2ncc(-c3ccc4c5cnccc5n(C(F)F)c4c3)cc2F)CC1)[C@H]1C[C@H](Oc2ccc3c(c2)C(=O)N(C2CCC(=O)NC2=O)C3=O)C1 (some centres unmarked) [Compound 581, 5-((1r,3r)-3-(((1-(5-(5-(difluoromethyl)-5H-pyrido[4,3-b]indol-7-yl)-3-fluoropyridin-2-yl)piperidin-4-yl)methyl)(isopropyl)amino)cyclobutoxy)-2-(2,6-dioxopiperidin-3-yl)isoindoline-1,3-dione] | < 50 |
| O=C1CCC(N2C(=O)c3ccc(N4CCN(CCC5CCN(c6cc(Nc7ccc8ncccc8n7)ccn6)CC5)CC4)cc3C2=O)C(=O)N1 (centres unmarked) [Compound 583, 2-(2,6-dioxo-3-piperidyl)-5-[4-[2-[1-[4-(1,5-naphthyridin-2-ylamino)-2-pyridyl]-4-piperidyl]ethyl]piperazin-1-yl]isoindoline-1,3-dione] | < 50 |
| Cc1cc(Nc2ccc3nc(N4CCC(CCN5CCN(c6ccc7c(c6)C(=O)N(C6CCC(=O)NC6=O)C7=O)CC5)CC4)ccc3n2)ccn1 (centres unmarked) [Compound 584, 2-(2,6-dioxopiperidin-3-yl)-5-(4-(2-(1-(6-((2-methylpyridin-4-yl)amino)-1,5-naphthyridin-2-yl)piperidin-4-yl)ethyl)piperazin-1-yl)isoindoline-1,3-dione] | < 50 |
| O=C1CCC(N2C(=O)c3ccc(C#CCN4CCN(CCC5CCN(c6ccc7c8cnccc8n(C(F)F)c7c6)CC5)CC4)cc3C2=O)C(=O)N1 (centres unmarked) [Compound 586, 5-(3-(4-(2-(1-(5-(difluoromethyl)-5H-pyrido[4,3-b]indol-7-yl)piperidin-4-yl)ethyl)piperazin-1-yl)prop-1-yn-1-yl)-2-(2,6-dioxopiperidin-3-yl)isoindoline-1,3-dione] | < 50 |
| O=C1CCC(N2C(=O)c3ccc(N4CCN(C(=O)CC5CCN(c6ncc(-c7ccc8c9cnccc9n(C(F)F)c8c7)cc6F)CC5)CC4)cc3C2=O)C(=O)N1 (centres unmarked) [Compound 592, 5-(4-(2-(1-(5-(5-(difluoromethyl)-5H-pyrido[4,3-b]indol-7-yl)-3-fluoropyridin-2-yl)piperidin-4-yl)acetyl)piperazin-1-yl)-2-(2,6-dioxopiperidin-3-yl)isoindoline-1,3-dione] | < 50 |
| O=C1CCC(N2C(=O)c3ccc(N4CCN(CCC5CCN(C6CCN(c7ccc8c9cnccc9n(C(F)F)c8c7)CC6)CC5)CC4)cc3C2=O)C(=O)N1 (centres unmarked) [Compound 593] | < 50 |
| O=C1CCC(N2C(=O)c3cccc(N4CCN(CCC5CCN(c6ncc(-c7ccc8c9cnccc9n(C(F)F)c8c7)cc6F)CC5)CC4)c3C2=O)C(=O)N1 (centres unmarked) [Compound 594, 4-(4-(2-(1-(5-(5-(difluoromethyl)-5H-pyrido[4,3-b]indol-7-yl)-3-fluoropyridin-2-yl)piperidin-4-yl)ethyl)piperazin-1-yl)-2-(2,6-dioxopiperidin-3-yl)isoindoline-1,3-dione] | < 50 |
